How the values were obtained:
[1] = tested on: MCF-7 cells; assay: RT-qPCR of selected ERVs, interferons and ISGs in MCF-7 cells treated with GSK-LSD1 (compound screen); type: cell-based, human; conditions: GSK-LSD1 for 6 days, RT-qPCR normalized to GAPDH, relative to DMSO (FIG. 1A)
Protocol: FIG. 1A is a bar graph showing quantitative reverse transcription polymerase chain reaction (RT-qPCR) analysis of selected endogenous retroviruses (ERVs) (HERV-E, HERV-F, HERV-K, HML-2, and ERVL), IFNs (IFN-α, IFN-β and IL-28) and ISGs (ISG15 and OASL) in human MCF-7 breast cancer cells treated with or without GSK-LSD1 for 6 days. The RT-qPCR data were normalized to GAPDH and then relative to DMSO. RT-qPCR was performed in duplicates and repeated two to three times. Error bars represent the standard error of mean (SEM). *p<0.05, **p<0.01, ***p<0.001, ns, not significant, as determined by unpaired t-test.
MCF-7, T47D, B16, LLC and D4m cells were cultured in normal DMEM supplemented with 10% FBS and 1% penicillin/streptomycin in 5% CO2 incubator at 37° C. All cell lines were cultured in 5% CO2 incubator at 37° C., and passaged every 2-3 days. […]
All reagents, buffers and containers used for RNA work were RNase-free grade or treated with 0.1% v/v DEPC (Sigma-Aldrich cat #D5758) if applicable, to eliminate RNase contaminants in this section and other relevant sections. […] The obtained cDNA samples were diluted and used for real-time quantitative PCR (RT-qPCR). […]
Of note, the PCR primers detected overall transcript levels of the corresponding ERV subfamilies, which may be transcribed from multiple genomic loc. […]

[2] = tested on: AGO2; assay: Mass spectrometry of lysine methylation on FH-AGO2 purified from MCF-7 cells; type: cell-based, human; conditions: overexpressed FH-AGO2 from MCF-7 cells, mass spectrometry (FIG. 5I)
Source text: FIG. 5I is a picture of immunoblots showing purified FH-AGO2 from MCF-7 cells treated by LSD1 KD or GSK-LSD1 as determined by mass spectrometry for the identification of lysine methylation. sh-Ctrl ([…]; SEQ ID NO: 156) and sh-LSD1, GSK-LSD1(VGK(me)[…]; SEQ ID NO: 157).
To investigate whether LSD1 regulates AGO2 stability by controlling AGO2 methylation, overexpressed FH-AGO2 from MCF-7 cells with or without LSD1 inhibition were purified and used for mass spectrometry analysis. […] To validate this finding, an antibody was raised that preferentially recognized AGO2 peptides mono-methylated at K726 (K726me1) compared with un-methylated or di-methylated peptides (FIG. 5J). Furthermore, this antibody detected increased K726me1 on ectopically expressed AGO2 when LSD1 was inhibited, which can be abrogated by substituting K726 with arginine (K726R) or alanine (K726A) (FIGS. 5K and 5L). […] To gain more insights into this regulation, an in vitro demethylation assay was performed using immunoprecipitated FH-LSD1, FH-LSD1-K661A (catalytically compromised LSD1), FH-AGO2 and FH-AGO2-K726R proteins purified from mammalian cells. FH-LSD1 but not FH-LSD1-K661A decreased K726me1 level on FH-AGO2, but had no observable effects on FH-AGO2-K726R (FIGS. 5N and 5O).

## Cl.Cl.c1ccc([C@@H]2C[C@H]2NC2CCNCC2)cc1 (relative stereo) [GSK-LSD1, rel-N-[(1R,2S)-2-Phenylcyclopropyl]-4-Piperidinamine hydrochloride (1:2)]
[1]
  up-regulation of selected ERVs, type I and type III interferons and interferon-stimulated genes (ISGs): significantly induce the up-regulation
[2]
  methylation of AGO2 lysine 726 (K726): consistently mono-methylated

Source: US11685782B2, “Methods of treating cancer using LSD1 inhibitors in combination with immunotherapy” (Children's Medical Center Corporation, priority 2017, dated 2023)
